The text below walks through data of the Biogen ADME set (Fang et al. 2023).

The conditions of this data set: for aqueous solubility: pH 6.8.

Usually aqueous solubility stands for how much of the substance goes into solution per volume. A lower aqueous solubility goes with a poorly soluble substance.

In brackets after ≈: the same amount, converted by molar mass. Bounds are passed on as bounds.

Turning to `CC(C)(C)C(=O)N1CCN(C(=O)CCN2CCOC2=O)CC1`, the MDR1-MDCK efflux ratio was found to be 64.9; the intrinsic clearance, human liver microsomes is at most 4.74 mL/min/kg; the intrinsic clearance, rat liver microsomes was at most 10.7 mL/min/kg; the aqueous solubility came to 62.7 µg/mL (≈ 201 µM).
With `CC(=O)c1ccc(-c2ccc(-c3nn[nH]n3)cc2)cc1`, the intrinsic clearance, human liver microsomes was 11.1 mL/min/kg and the intrinsic clearance, rat liver microsomes stood at 52.7 mL/min/kg.
With `Cc1cc(C)nc(N(C)CC(=O)NC2CC2)n1`, the MDR1-MDCK efflux ratio amounted to 0.884; the intrinsic clearance, human liver microsomes was at most 4.74 mL/min/kg; the intrinsic clearance, rat liver microsomes turned out to be 23.1 mL/min/kg; the aqueous solubility worked out at 34.9 µg/mL (≈ 149 µM).
Turning to `Cc1nn(CCC#N)c(C)c1Oc1ccccc1O`, the MDR1-MDCK efflux ratio was 1.57; the intrinsic clearance, human liver microsomes is at most 4.74 mL/min/kg; the intrinsic clearance, rat liver microsomes was 112 mL/min/kg; the aqueous solubility came to 36.7 µg/mL (≈ 143 µM).
For `COC(=O)CC1=NN(c2ccc(OC)cc2)C(=O)/C1=C(/C)NCc1ccc(OC)cc1`, in that order: 1.26, 272 mL/min/kg, 503 mL/min/kg and 2.28 µg/mL (≈ 5.38 µM).
Turning to `CC(=O)N[C@H]1/C(=N\OC(=O)Nc2ccccc2)O[C@H](CO)[C@H](O)[C@@H]1O`, the aqueous solubility is 66.4 µg/mL (≈ 188 µM).
For `Cc1cc(C)c(S(=O)(=O)Nc2ccc(N(C)C)cc2)c(C)c1-n1cnnn1`, the MDR1-MDCK efflux ratio is 9.73; the intrinsic clearance, human liver microsomes amounted to 118 mL/min/kg; the intrinsic clearance, rat liver microsomes came to 89.2 mL/min/kg; the aqueous solubility was determined as 2.73 µg/mL (≈ 7.06 µM).
The molecule `N=C(NC(=O)OCc1ccccc1)c1ccc(CN)cc1` had an aqueous solubility of 30.6 µg/mL (≈ 108 µM).
As for `Cc1ccc(C(=O)C2CCN(CC(=O)NC(=O)Nc3ccccc3)CC2)c(C)c1`, the MDR1-MDCK efflux ratio was found to be 0.559; the intrinsic clearance, human liver microsomes was determined as 64.3 mL/min/kg; the intrinsic clearance, rat liver microsomes is 936 mL/min/kg.
In the case of `Nc1ncnc2c1c(-c1ccc(Oc3ccccc3)cc1)nn2[C@@H]1CCCNC1`, the MDR1-MDCK efflux ratio came out at 21; the fraction unbound, human plasma was 0.0905; the fraction unbound, rat plasma amounted to 0.0702; the intrinsic clearance, human liver microsomes stood at 35 mL/min/kg. Also, the intrinsic clearance, rat liver microsomes amounted to 103 mL/min/kg and the aqueous solubility stood at 40 µg/mL (≈ 103 µM).
For `CC(C)c1nccn1-c1cccc([C@@H]2CCCN2C(=O)CCc2ccccc2)n1`, the MDR1-MDCK efflux ratio was 10.2; the intrinsic clearance, human liver microsomes amounted to 557 mL/min/kg; the intrinsic clearance, rat liver microsomes turned out to be 1060 mL/min/kg; the aqueous solubility was 51 µg/mL (≈ 131 µM).
For `Cn1ccnc1CN1CCN(Cc2ccc(F)cc2C#N)CC1`, in that order: 6.3, at most 4.74 mL/min/kg, 446 mL/min/kg and 43.9 µg/mL (≈ 140 µM).
Consider `COc1ccc(-c2nc(CC(N)=O)sc2C)cc1.Cl`, for which the MDR1-MDCK efflux ratio is 0.246; the intrinsic clearance, human liver microsomes is 166 mL/min/kg; the intrinsic clearance, rat liver microsomes amounted to 111 mL/min/kg; the aqueous solubility was 30.3 µg/mL.
The matching figures for `Nc1cncc(-c2ccc(CN3CCCCC3)cc2)c1`: 0.743, 40.7 mL/min/kg, 56.3 mL/min/kg and 26 µg/mL (≈ 97.1 µM).
Regarding `Cc1ccc(NC(=O)CN2CCCN(c3ccc(C(F)(F)F)cn3)CC2)cc1`, the MDR1-MDCK efflux ratio was 0.857; the intrinsic clearance, human liver microsomes amounted to 126 mL/min/kg; the intrinsic clearance, rat liver microsomes was 602 mL/min/kg; the aqueous solubility came out at 12.9 µg/mL (≈ 33 µM).
As to `CC(C)S(=O)(=O)c1ccc2nccc(Nc3ccc4scnc4c3)c2c1`, the MDR1-MDCK efflux ratio worked out at 14.6 and the aqueous solubility stood at 38.5 µg/mL (≈ 100 µM).
For the molecule `O=C(NCCc1ccc2c(c1)OCCO2)c1ccc2ccccc2n1`, the MDR1-MDCK efflux ratio amounted to 0.565; the intrinsic clearance, human liver microsomes is 123 mL/min/kg; the intrinsic clearance, rat liver microsomes worked out at 1950 mL/min/kg; the aqueous solubility is 9.67 µg/mL (≈ 28.9 µM).
